“And” between values parts separate entries of the source, which are not always exact repeats. Identical values can stand only once.
Key:
[1] = test system: “F3” primary HAE cells; test: Cytotoxicity assay (PrestoBlue), “F3” HAE; settings: F3 HAE, 72 h
[2] = female, ferret, in vivo, iv
[3] = test system: HEp-2 cells; test: Cytotoxicity assay (PrestoBlue), HEp-2; settings: 72 h
[4] = in vitro; settings: African green monkey
[5] = in vitro; settings: human, % cell viability
[6] = in vitro; settings: human, % cell viability, M2 HAE, 72 h
[7] = test system: “F2” primary HAE cells; test: Cytotoxicity assay (PrestoBlue), “F2” HAE; settings: 72 h; for % cell viability: F2 HAE
[8] = in vitro; settings: female, human, % cell viability, DF2 HAE, 33.333 µM, 72 h
[9] = test system: SARS-CoV-2-Nluc (WA1/2020-nano luciferase); test: microbe, parasite or virus in culture; format: cell-based
[10] = in vitro; settings: hamster
[11] = in vitro; settings: human, 72 h
[12] = in vitro; settings: human, % cell viability, M6 HAE, 72 h
[13] = test system: HCT-8 cells; test: Cytotoxicity assay (PrestoBlue), HCT-8; settings: HCT-8, 72 h
[14] = in vitro; settings: human
[15] = in vitro; settings: human, % cell viability; remark: listed apart in the source

Compound: CCC(CC)COC(=O)[C@H](C)N[P@](=O)(OC[C@H]1O[C@@](C#N)(c2ccc3c(N)ncnn23)[C@H](O)[C@@H]1O)Oc1ccccc1 [remdesivir]
- % cell viability ([1]; 0.046 µM): 76% and 79%
- % cell viability ([1]; 33.333 µM): 88% and 89%
- % cell viability ([1]; 100 µM): 52% and 54%
- lung GS-443902 [2]: 1.28 nmol/g
- lung total nuc [2]: 2.96 nmol/g
- % cell viability ([3]; HEp-2, 0.046 µM, 0.046 µM): 45% and 47% and 73%
- % cell viability ([3]; HEp-2, 1.235 µM, 1.235 µM): 86% and 94%
- % cell viability ([3]; HEp-2, 3.704 µM, 3.704 µM): 96%
- % cell viability ([3]; HEp-2, 33.333 µM, 33.333 µM): 51% and 66%
- % cell viability ([3]; HEp-2, 100 µM, 100 µM): 24%
- CC50 [4]: > 100 µM
- viability at […] ([4]; % cell viability): 79%
- viability at 3.704 µM ([4]; % cell viability, VeroE6, 3.704 µM, 72 h): 92%
- viability at […] [5]: 89%
- viability at 1.235 µM ([5]; HEp-2, 1.235 µM, 72 h): 83%
- viability at 33.333 µM ([5]; HEp-2, 33.333 µM, 72 h): 64%
- viability at 100 µM ([5]; HEp-2, 100 µM, 72 h): 31%
- viability at 100 µM ([6]; 100 µM): 56%
- viability at 0.046 µM ([6]; male, 0.046 µM): 85%
- % cell viability ([7]; 0.046 µM): 85% and 82%
- % cell viability ([7]; 33.333 µM): 77% and 71%
- % cell viability ([7]; 100 µM): 47%
- CC50 ([7]; “F2” HAE): 85.5 µM
- viability at 33.333 µM [8]: 86%
- A549-hACE2 SARS-CoV-2 Nluc (EC50 determination), normalized signal ([9]; Conc 0.005 µM, replicate values of the experiments): 78.71 and 115.29 and 114.83 and 141.39 and 91.95 and 93.98 and 92.17 and 82.76 and 114.48 and 78.49 and 78.52 and 118.54
- EC50 ([9]; Severe acute respiratory syndrome coronavirus 2, WA1/2020-nano luciferase, A549-ACE2, mean ± SD): 0.08 µM
- CC50 [10]: > 100 µM
- viability at 1.235 µM ([10]; % cell viability, BHK-21, 1.235 µM, 72 h): 87%
- viability at 3.704 µM ([10]; % cell viability, BHK-21, 3.704 µM, 72 h): 93%
- viability at 0.046 µM ([11]; female, % cell viability, F2 HAE, 0.046 µM): 81%
- viability at 33.333 µM ([11]; female, % cell viability, F2 HAE, 33.333 µM): 72%
- viability at 100 µM ([11]; % cell viability, F2 HAE, 100 µM): 46%
- CC50 ([11]; CC50, “F2” HAE): 85.5 µM
- viability at 100 µM ([12]; 100 µM): 89%
- viability at 0.046 µM ([12]; male, 0.046 µM): 90%
- viability at 1.235 µM ([12]; male, 1.235 µM): 87%
- viability at 33.333 µM ([12]; male, 33.333 µM): 96%
- CC50 [13]: 36.4 µM
- viability at 0.046 µM ([14]; % cell viability, HCT-8, 0.046 µM, 72 h): 76%
- viability at 33.333 µM ([14]; % cell viability, HCT-8, 33.333 µM, 72 h): 51%
- viability at 100 µM ([14]; % cell viability, HCT-8, 100 µM, 72 h): 15%
- CC50 ([14]; CC50, HCT-8, 72 h): 36.4 µM
- viability at […] ([15]; female): 91%
- viability at 0.046 µM ([15]; female, F3 HAE, 0.046 µM, 72 h): 75%
- viability at 33.333 µM ([15]; female, F3 HAE, 33.333 µM, 72 h): 84%
- viability at 100 µM ([15]; F3 HAE, 100 µM, 72 h): 51%

Source: PMC8571282 (Nature Communications, 2021)
